pIC50: −log10 of the molar value. One block for each compound: values may come before it.
Legend:
rat hepatocytes [1] = assay: survival of rat hepatocytes after exposure to oxyradical (Table I); type: cell-based; details: for Mean Survival Time of 10^5 Rat Hepatocytes After Exposure to Oxyradical: control about 6.5 minutes
Text: In further studies, culturing the rat hepatocytes and testing for oxyradical damage using purpurogallin and Trolox additives according to the procedure of Wu et al. op. cit., and Clin. Chem. 36: 1172-1173 (abstract), 1990, the results given below in Table I were obtained.

water solubility = type: physicochemical; details: 4 mM prepared in PBS with brief sonication, pH adjusted to 7.40±0.05
[2] = system: Rat kidney mesangial cells; assay: survival of rat kidney mesangial cells exposed to XOD and hypoxanthine (Table III); type: cell-based; details: for Mean Time Survival of Cells Exposed to XOD and Hypoxanthine: XOD 66.7 IU/L, hypoxanthine 0.5 mM, control 5.7
Text: Rat kidney mesangial cells were isolated and tested with purpurogallin versus Trolox over the same range of concentrations, for protection against oxyradical damage using methods and procedures described by Wu et al., op cit. […]

rat hepatocytes [3] = assay: time to necrose rat hepatocytes exposed to xanthine oxidase/hypoxanthine oxyradicals (FIG. 2); type: cell-based, rat (male Sprague-Dawley); details: 3 mM; XOD 66.7 IU/L, 2 mM hypoxanthine; control approximately 6 min
Protocol: In this example, experiments were conducted with rat hepatocytes, subjecting them to the action of free radicals in the presence and absence of purpurogallin, at various levels.
Hepatocytes were prepared from male Sprague-Dawley rats (400 g-450 g) according the method of Princen et al. J. Clin. Invest. 78: 1064-1071 (1986), except that the perfusion of the liver was done first with 250 mL of 0.5 mM EGTA and 10 MM HEPES buffer solution (pH 7.4) containing 142 mM NaCl and 6.7 mM KCL via gravity drip at 20 mL/min., then with 100 mL of magnesium-free Hank's Balanced Salt Solution containing 5 mM CaCl2 and 0.05% collagenase according to Seglen, Exp. Cell. Res. 82: 391-398 (1973). All other details were as described previously (Wu et al., Biochem. Cell Biol. 68, 1189-1194, 1990).
Free radical studies were done by removing the cell medium and adding to the cells 3 mL of 0.05M sodium phosphate-buffered saline (PBS) (pH 7.4) containing 66.7 IU/L of xanthine oxidase (XOD) and 2 mM hypoxanthine, the latter two being used to generate oxyradicals. The base for comparing the effect of different levels of purpurogallin was the time taken to cause necrosis in 95% of 10^5 cells of the same generation in each culture dish. […]
The results are shown graphically in FIG. 2. […] The data are expressed as means±SD (standard deviation). […]

heart = heart ischemia-reperfusion in vivo; design: species or system New Zealand white rabbits
Protocol: In this example, the cytoprotective effect of purpurogallin in vivo, in heart ischemia-reperfusion in rabbits was examined.
New Zealand white rabbits (3.0-3.5 kg by weight) were anaesthetized with intramuscular injection of Ketamine (35 mg/kg) and Atravet (0.4 mg/kg), and intravenous injection of atropine (0.1 mg/kg).
After shaving the frontal area of the animal, anaesthesia was maintained by performing tracheotomy and ventilating the animal with positive pressure respiration using a Harvard small animal respirator and a gas mixture of 2.5% ethrane (or enflurane) in oxygen. A midline sternotomy was done. The pericardium was opened and the heart was exposed. The main branch of the anterior ventricular coronary artery that supplies blood to a great part of the left ventricle and apex in rabbits (also referred to as the left circumflex coronary artery) was temporarily ligated with a 5-0 silk thread for 1 hour at the site between 1/2 to 2/3 from apex to the atrioventricular groove. Approximately 1 minute before releasing the occlusion, a 30-ml bolus of 1 mM test solution was injected through the right external jugular vein. In control animals, a 30-mL bolus of normal saline was given instead of the test solution. […] After this period, the heart was harvested, stained for enzyme activity with a tetrazolium dye and the areas of necrosis determined by planimetry. […]

rat livers = assay: partial hepatic ischemia-reperfusion in vivo; design: species or system Sprague-Dawley rats; details: for Mean Necrosis (% by weight): infused via penile vein, 24 h reperfusion, saline control 30.3, n=6
Protocol: In vivo studies were conducted on rat livers, to determine the effectiveness of purpurogallin as a cytoprotectant in partial hepatic ischemia-reperfusion.
There was used the same model as described in Wu et al. Hepatology 13: 575-580, (1991). In essence, the model involves the occlusion of blood vessels supplying to the left lateral, median, and Spigelian lobes of the rate liver by clamping the left portal vein, left hepatic artery and left bile duct. The right portal vein, hepatic artery and bile duct were left intact as an interal shunt. The occlusion was done in Sprague-Dawley rats (0.3-0.4 kg) which had fasted overnight. Approximately […] before the end of ischemia, either 3 mL of saline (control) or saline containing purpurogallin or Trolox (at the levels specified below) was infused into the animals via the penile vein over a 3 minute period. This was followed by reperfusion for 24 hours. Then, the extent of necrosis (based on wet weight of the liver) was quantified by a well established histochemical method (Frederiks et al., Exptl. Mol. Path 41: 119-125, 1984).

human erythrocytes = assay: protection of human erythrocytes from AAPH-induced lysis; type: cell-based; details: for pIC50: Homo sapiens, Erythrocyte, 3 h, 100 mM AAPH, 10% RBC suspension, 37° C., 180 min, read-out: concentration of the agent that elicits 50% inhibition of cells lysis (IC50)
Protocol: In this example, experiments were conducted with human erythrocytes, subjecting them to free radicals generated by thermal activation of AAPH in a reaction mixture in the absence and in the presence of various amounts of purpurogallin or Trolox, to determine the cytoprotective capability of purpurogallin under these conditions.
Freshly obtained human erythrocytes were washed at least three times in saline with centrifugation at 1500 g×10 min. Then, a 20% suspension of RBC was prepared in the phosphate buffered saline (pH 7.4). (Miki et al., Arch. Biochem. Biophys. 258: 373-380, 1987).
The free radicals were generated by thermal activation of the azo-initiator2,2'-azo-bis(2-amidinopropane)HCl(AAPH). The reaction mixture (0.5 mL volumes) contained 10% red blood cell (RBC) suspension, AAPH (100 mM final level) and various levels of purpurogallin in 10 mM phosphate buffered saline. The above mixture was incubated at 37° C. for 180 min, while shaking gently. The, 35 μl aliquot of reaction mixture was taken out, diluted in 1.5 mL of saline, and centrifuged (1500 g for 10 min). The absorption of the supernatant at […] was read against a PBA blank. Similarly, the reaction mixture was treated with 1.5 mL of distilled water with sonication for 2 min to obtain complete hemolysis. Percent hemolysis was calculated according to Miki et al. (op. cit.).

[4] = system: Human ventricular myocytes; assay: survival of ventricular myocytes after exposure to oxyradical (Table II); type: cell-based; details: for Mean survival time of human ventricular myocytes after exposure to oxyradical: control 2 minutes, mean of 5-7 replicates
Text: Human ventricular myocytes were isolated and tested with purpurogallin and Trolox for protection against oxyradical damage using the methods and procedures described by Wu et al., op cit.
Each result reported in Table II is the mean of 5-7 closely agreeing replicates.

water solubility (water solubility): partly water-soluble
pIC50 (human erythrocytes): 3.92
effectiveness versus Trolox in protecting cells from lysis (from IC50) (human erythrocytes; versus Trolox): six
Structure (SMILES): O=c1c(O)cccc2cc(O)c(O)c(O)c12 [Purpurogallin, 2,3,4,6-tetrahydroxy-5H-benzocyclohepten5-one]
Mean Survival Time of 10^5 Rat Hepatocytes After Exposure to Oxyradical (rat hepatocytes [1]; 0.5 mM): 18 min
Mean Survival Time of 10^5 Rat Hepatocytes After Exposure to Oxyradical (rat hepatocytes [1]; 1.0 mM): 20 min
Mean Survival Time of 10^5 Rat Hepatocytes After Exposure to Oxyradical (rat hepatocytes [1]; 2.0 mM): 31 min
protection of rat hepatocytes compared with Trolox (rat hepatocytes [1]; at equivalent concentrations): clearly more protective of rat hepatocytes than Trolox
Mean Time Survival of Cells Exposed to XOD and Hypoxanthine ([2]; 0.13 mM): 11.5 min
Mean Time Survival of Cells Exposed to XOD and Hypoxanthine ([2]; 0.25 mM): 13.4 min
Mean Time Survival of Cells Exposed to XOD and Hypoxanthine ([2]; 0.50 mM): 16.0 min
Mean Time Survival of Cells Exposed to XOD and Hypoxanthine ([2]; 1.00 mM): 19.4 min
protection of kidney cells compared with Trolox ([2]; over all the levels examined): protects the kidney cells substantially better than Trolox
time taken to necrose 100,000 hepatocytes (rat hepatocytes [3]): up to 30 min
Mean % (± SD) organ necrosis in area at risk (heart; 8.6-10 μmoles/kg body weight (30-ml bolus of 1 mM), right external jugular vein, 3-hour reperfusion, saline control 46.6 ± 10, p <0.001): 11.8 ± 6.2%
Mean & organ salvage (heart; 8.6-10 μmoles/kg body weight, p <0.001 vs control): 75%
Mean Necrosis (% by weight) (rat livers; 4.4 μmoles/kg body weight, SD 4.6): 17.7 % by weight
% Salvage of Liver (rat livers; 4.4 μmoles/kg body weight, p value vs control <0.05): 42%
Mean Necrosis (% by weight) (rat livers; 8.8 μmoles/kg body weight, SD 4.9): 7.3 % by weight
% Salvage of Liver (rat livers; 8.8 μmoles/kg body weight, p value vs control 0.005): 76%
Mean Necrosis (% by weight) (rat livers; 18 μmoles/kg body weight, SD 1.1): 4.4 % by weight
% Salvage of Liver (rat livers; 18 μmoles/kg body weight, p value vs control 0.001): 86%
Mean survival time of human ventricular myocytes after exposure to oxyradical ([4]; 0.5 mM): 14 min
Mean survival time of human ventricular myocytes after exposure to oxyradical ([4]; 1.0 mM): > 60 min
Mean survival time of human ventricular myocytes after exposure to oxyradical ([4]; 1.5 mM): > 60 min
Mean survival time of human ventricular myocytes after exposure to oxyradical ([4]; 3.0 mM): > 60 min
protection of myocytes compared with Trolox ([4]; especially at levels greater than 0.5 mM): at least an order of magnitude more protective of myocytes than Trolox

pIC50 (human erythrocytes): ~3.13
Structure (SMILES): Cc1c(C)c2c(c(C)c1O)CCC(C)(C(=O)O)O2 (centres unmarked) [Trolox, 6-hydroxy-2,5,7,8-tetramethylchroman-2-carboxylic acid, reference compound]
Mean Survival Time of 10^5 Rat Hepatocytes After Exposure to Oxyradical (rat hepatocytes [1]; 0.5 mM): 12 min
Mean Survival Time of 10^5 Rat Hepatocytes After Exposure to Oxyradical (rat hepatocytes [1]; 1.0 mM): 13 min
Mean Survival Time of 10^5 Rat Hepatocytes After Exposure to Oxyradical (rat hepatocytes [1]; 2.0 mM): 16 min
Mean Time Survival of Cells Exposed to XOD and Hypoxanthine ([2]; 0.13 mM): 6.4 min
Mean Time Survival of Cells Exposed to XOD and Hypoxanthine ([2]; 0.25 mM): 6.6 min
Mean Time Survival of Cells Exposed to XOD and Hypoxanthine ([2]; 0.50 mM): 7.4 min
Mean Time Survival of Cells Exposed to XOD and Hypoxanthine ([2]; 1.00 mM): 7.8 min
Mean survival time of human ventricular myocytes after exposure to oxyradical ([4]; 0.5 mM): 3.5 min
Mean survival time of human ventricular myocytes after exposure to oxyradical ([4]; 1.0 mM): 4.5 min
Mean survival time of human ventricular myocytes after exposure to oxyradical ([4]; 1.5 mM): 4.8 min
Mean survival time of human ventricular myocytes after exposure to oxyradical ([4]; 3.0 mM): 5.3 min
